Assay results published in article PMC8402619 (Viruses, 2021).

Legend:
[1] = Renal clearance after 1 mg/kg intravenous, rabbit; assay type: in vivo, female Dutch Belted rabbits; conditions: 1 mg/kg intravenously
MRP2 = biological target: T1, MRP2 (Homo sapiens, UniProt Q92887); assay: Inhibition of ATP-dependent probe uptake in Sf9 membrane vesicles; assay type: in vitro ADME; conditions: MRP2-mediated ATP-dependent uptake of ethacrynic acid glutathione conjugate
T1 construct: purchased Thermo Fisher Scientific; host or cells: Sf9

MRP4 = biological target: T2, MRP4 (Homo sapiens, UniProt O15439); assay: as above; assay type: in vitro ADME; conditions: MRP4-mediated ATP-dependent uptake of folic acid
T2 construct: purchased Thermo Fisher Scientific; host or cells: Sf9

MATE2K = biological target: T3, MATE2K (Homo sapiens, UniProt Q86VL8); assay: Islatravir uptake as substrate, MDCKII vs MDCKII-MATE2K cells; assay type: in vitro ADME
T3 construct: expressed in transfected cells; host or cells: MDCKII

[2] = Projected human exposure for a 60 mg oral dose
CYP2B6 = assay: CYP induction in cryopreserved human hepatocytes; conditions: for mRNA Mean Fold Change ± SD CYP2B6: 48 h, n = 3 donors, vs DMSO vehicle

T3 sequence (Q86VL8 1-566 isoform Q86VL8-3): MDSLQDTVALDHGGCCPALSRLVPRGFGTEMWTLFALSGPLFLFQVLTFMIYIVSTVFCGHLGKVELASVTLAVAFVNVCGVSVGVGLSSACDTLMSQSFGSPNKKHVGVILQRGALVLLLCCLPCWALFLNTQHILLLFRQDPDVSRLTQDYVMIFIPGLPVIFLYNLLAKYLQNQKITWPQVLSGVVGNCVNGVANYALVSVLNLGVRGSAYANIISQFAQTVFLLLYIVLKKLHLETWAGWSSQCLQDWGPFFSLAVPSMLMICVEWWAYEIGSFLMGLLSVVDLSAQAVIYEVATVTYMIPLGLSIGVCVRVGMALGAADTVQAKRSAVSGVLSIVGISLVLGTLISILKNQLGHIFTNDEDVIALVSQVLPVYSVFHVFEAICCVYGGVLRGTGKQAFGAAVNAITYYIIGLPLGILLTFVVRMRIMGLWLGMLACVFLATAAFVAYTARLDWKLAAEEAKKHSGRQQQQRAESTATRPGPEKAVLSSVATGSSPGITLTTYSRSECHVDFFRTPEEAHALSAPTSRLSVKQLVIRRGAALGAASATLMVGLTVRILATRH
T1 sequence (Q92887 whole entry): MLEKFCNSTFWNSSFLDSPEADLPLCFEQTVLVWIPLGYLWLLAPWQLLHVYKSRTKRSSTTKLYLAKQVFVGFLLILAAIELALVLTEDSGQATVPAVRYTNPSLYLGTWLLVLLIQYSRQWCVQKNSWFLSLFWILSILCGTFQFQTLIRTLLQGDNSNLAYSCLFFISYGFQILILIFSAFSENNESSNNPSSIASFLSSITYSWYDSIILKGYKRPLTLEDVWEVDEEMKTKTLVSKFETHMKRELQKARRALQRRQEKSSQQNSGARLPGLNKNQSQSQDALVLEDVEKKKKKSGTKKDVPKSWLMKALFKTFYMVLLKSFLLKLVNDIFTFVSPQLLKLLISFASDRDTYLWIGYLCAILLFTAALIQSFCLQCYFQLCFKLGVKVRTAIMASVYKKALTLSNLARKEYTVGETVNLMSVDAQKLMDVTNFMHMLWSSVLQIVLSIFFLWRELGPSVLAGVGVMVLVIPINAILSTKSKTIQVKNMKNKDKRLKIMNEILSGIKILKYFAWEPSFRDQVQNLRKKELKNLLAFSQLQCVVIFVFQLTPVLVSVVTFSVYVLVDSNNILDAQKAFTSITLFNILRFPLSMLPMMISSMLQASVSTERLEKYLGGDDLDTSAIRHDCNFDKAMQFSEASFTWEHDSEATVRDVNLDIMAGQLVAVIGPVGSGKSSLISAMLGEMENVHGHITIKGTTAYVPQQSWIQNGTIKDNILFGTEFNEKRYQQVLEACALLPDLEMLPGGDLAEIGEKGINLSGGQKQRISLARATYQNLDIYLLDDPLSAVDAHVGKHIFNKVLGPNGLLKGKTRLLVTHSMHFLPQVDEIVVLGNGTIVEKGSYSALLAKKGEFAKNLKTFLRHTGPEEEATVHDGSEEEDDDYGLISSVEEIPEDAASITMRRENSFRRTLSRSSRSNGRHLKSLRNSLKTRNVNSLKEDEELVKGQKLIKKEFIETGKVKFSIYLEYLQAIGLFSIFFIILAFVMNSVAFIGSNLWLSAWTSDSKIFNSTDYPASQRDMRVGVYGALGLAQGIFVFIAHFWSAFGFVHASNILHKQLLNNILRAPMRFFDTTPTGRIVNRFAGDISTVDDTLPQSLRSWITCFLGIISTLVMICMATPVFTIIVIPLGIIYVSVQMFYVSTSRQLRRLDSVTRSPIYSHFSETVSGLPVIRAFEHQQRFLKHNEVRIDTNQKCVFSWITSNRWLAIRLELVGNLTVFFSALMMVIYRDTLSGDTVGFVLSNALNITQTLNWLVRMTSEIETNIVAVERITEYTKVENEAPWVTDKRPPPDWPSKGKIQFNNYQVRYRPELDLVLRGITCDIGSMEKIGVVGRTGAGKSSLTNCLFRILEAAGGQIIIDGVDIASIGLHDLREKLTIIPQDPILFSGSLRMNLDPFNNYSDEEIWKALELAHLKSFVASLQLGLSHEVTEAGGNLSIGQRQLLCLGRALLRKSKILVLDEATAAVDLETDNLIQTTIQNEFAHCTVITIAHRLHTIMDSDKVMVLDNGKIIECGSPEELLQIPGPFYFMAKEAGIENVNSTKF
T2 sequence (O15439 whole entry): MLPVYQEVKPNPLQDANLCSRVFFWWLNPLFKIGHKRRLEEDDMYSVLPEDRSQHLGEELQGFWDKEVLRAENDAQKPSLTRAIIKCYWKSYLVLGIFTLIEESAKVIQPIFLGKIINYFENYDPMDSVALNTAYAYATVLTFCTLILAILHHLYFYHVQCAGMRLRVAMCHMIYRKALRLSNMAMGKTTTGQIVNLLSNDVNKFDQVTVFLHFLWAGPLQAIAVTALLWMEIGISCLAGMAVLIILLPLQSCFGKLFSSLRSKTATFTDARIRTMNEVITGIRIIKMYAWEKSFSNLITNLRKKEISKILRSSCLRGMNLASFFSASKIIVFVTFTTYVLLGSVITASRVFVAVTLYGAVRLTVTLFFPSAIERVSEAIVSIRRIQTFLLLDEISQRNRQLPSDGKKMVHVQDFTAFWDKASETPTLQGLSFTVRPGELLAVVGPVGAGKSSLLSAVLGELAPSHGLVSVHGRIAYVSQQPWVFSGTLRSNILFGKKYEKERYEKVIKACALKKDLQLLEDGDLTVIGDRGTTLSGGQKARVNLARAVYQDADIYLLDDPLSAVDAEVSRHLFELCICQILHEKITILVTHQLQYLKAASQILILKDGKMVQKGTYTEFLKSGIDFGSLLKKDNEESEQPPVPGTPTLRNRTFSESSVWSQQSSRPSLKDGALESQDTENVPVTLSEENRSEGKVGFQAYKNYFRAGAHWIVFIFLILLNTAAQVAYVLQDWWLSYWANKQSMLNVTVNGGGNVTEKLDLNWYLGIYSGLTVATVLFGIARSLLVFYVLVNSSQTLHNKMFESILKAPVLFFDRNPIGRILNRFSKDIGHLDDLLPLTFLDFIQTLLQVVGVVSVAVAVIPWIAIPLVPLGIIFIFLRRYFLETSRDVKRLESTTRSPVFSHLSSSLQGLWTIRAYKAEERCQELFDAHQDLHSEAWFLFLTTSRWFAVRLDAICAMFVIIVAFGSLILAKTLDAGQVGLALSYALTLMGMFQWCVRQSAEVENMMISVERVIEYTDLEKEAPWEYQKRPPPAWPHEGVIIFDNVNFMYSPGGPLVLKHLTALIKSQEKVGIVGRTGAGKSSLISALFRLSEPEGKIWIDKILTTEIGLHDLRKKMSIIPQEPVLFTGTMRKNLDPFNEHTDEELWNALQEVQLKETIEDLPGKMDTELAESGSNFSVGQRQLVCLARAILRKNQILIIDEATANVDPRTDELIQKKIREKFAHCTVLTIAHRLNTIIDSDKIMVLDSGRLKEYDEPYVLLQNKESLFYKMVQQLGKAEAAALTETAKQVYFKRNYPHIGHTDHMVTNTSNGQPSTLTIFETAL

Compound: C#C[C@]1(CO)O[C@@H](n2cnc3c(N)nc(F)nc32)C[C@@H]1O [Islatravir, 4′-Ethynyl-2-fluoro-2′-deoxyadenosine]
- Renal Excretion (% Total Plasma Clearance) [1]: 31%
- CL renal ([1]; female, Dutch Belted, plasma and urine, iv, urine 0-48 h): 5.3 mL/min/kg
- IC50 (MRP2): > 100 µM
- IC50 (MRP4): > 100 µM
- Islatravir Uptake Control Cells (MATE2K; MATE2K row, MDCKII control cells, 2 µM [14C]islatravir, 20 min, mean ± SD, n = 3): 3.12 ± 0.17 pmole/10^6 Cells
- Conclusions (MATE2K; MATE2K substrate assessment): Non-substrate
- Fold-Difference (MATE2K; MATE2K, uptake into transporter-expressing cells to control cells, 20 min): 1.14
- Islatravir Uptake Transporter-Expressing Cells (MATE2K; MDCKII-MATE2K, 2 µM [14C]islatravir, 20 min, mean ± SD, n = 3): 3.56 ± 0.17 pmole/10^6 Cells
- projected maximum free concentration at the liver inlet [2]: approximately 10 µM
- mRNA Mean Fold Change ± SD CYP2B6 (CYP2B6; 0.1 µM): 0.5 ± 0.1
- mRNA Mean Fold Change ± SD CYP2B6 (CYP2B6; 0.5 µM): 0.5 ± 0.2
- mRNA Mean Fold Change ± SD CYP2B6 (CYP2B6; 1 µM): 0.7 ± 0.2
- mRNA Mean Fold Change ± SD CYP2B6 (CYP2B6; 5 µM): 0.7 ± 0.1
- mRNA Mean Fold Change ± SD CYP2B6 (CYP2B6; 10 µM): 0.9 ± 0.3
- mRNA Mean Fold Change ± SD CYP2B6 (CYP2B6; 20 µM): 0.4 ± 0.3
- mRNA response relative to positive control (CYP2B6; CYP2B6, each tested concentration 0.1-20 µM): less than 20%
- enzyme activity, fold of solvent control (CYP2B6; CYP2B6 bupropion hydroxylation, all islatravir concentrations): ≤ 1.1 fold
